The results in this text go back to ChEMBL document CHEMBL3045836, “Synthesis characterization and biological evaluation of some alkoxyphthalimide derivatives of 3-(4-substituted phenyl)-6,6-diphenyl-3,3a-dihydro-2H-imidazo[2,1-b]pyrazolo[3,4-d][1,3]thiazol-7(6H)-one” (2011).

Common to all, as to type: functional
Settings in all cases: read-out: IZ

Experiment [1] relates to Candida albicans. Put plainly: Antifungal activity against Candida albicans at 500 ppm.
The subject of experiment [2] is Aspergillus fumigatus. The experiment can be described thus: Antifungal activity against Aspergillus fumigatus at 500 ppm.
Experiment [3] deals with Bacillus subtilis. Put plainly: Antibacterial activity against Bacillus subtilis at 500 ppm.
Experiment [4] has as its system Pseudomonas aeruginosa. The experiment can be described thus: Antibacterial activity against Pseudomonas aeruginosa at 500 ppm.
The subject of experiment [5] is Proteus mirabilis. The experiment can be described thus: Antibacterial activity against Proteus mirabilis at 500 ppm.
For experiment [6], the system named is Escherichia coli. Put plainly: Antibacterial activity against Escherichia coli at 500 ppm.

As to `C[C@@H]1[C@H](O)[C@@H](C)/C=C/C=C/C=C/C=C/C=C/C=C/C=C/[C@H](O[C@@H]2O[C@H](C)[C@@H](O)[C@H](N)[C@@H]2O)C[C@@H]2O[C@](O)(C[C@@H](O)C[C@@H](O)[C@H](O)CC[C@@H](O)C[C@@H](O)CC(=O)O[C@H]1C)C[C@H](O)[C@H]2C(=O)O` [AMPHOTERICIN B], the zone of inhibition at 500 ppm worked out at 17 mm in experiment [1] and 10 mm in experiment [2].
Turning to `O=C1c2ccccc2C(=O)N1OCCNc1nc(-c2ccccc2)c2c(n1)N1C(=O)C(c3ccccc3)(c3ccccc3)N=C1S2`, the zone of inhibition at 500 ppm in experiment [1] is 26 mm; in experiment [3] it was 7 mm; in experiment [2] it was 2 mm; in experiment [4], 14 mm; in experiment [5] it was 10 mm; in experiment [6], 18 mm.
As for `COc1ccc(-c2nc(NCCON3C(=O)c4ccccc4C3=O)nc3c2SC2=NC(c4ccccc4)(c4ccccc4)C(=O)N23)cc1`, the zone of inhibition at 500 ppm was found to be 21 mm in experiment [1]; 12 mm in experiment [3]; 5 mm in experiment [2]; 12 mm in experiment [4]; 6 mm in experiment [5]; 11 mm in experiment [6].
In the case of `O=C(O)c1cn(C2CC2)c2cc(N3CCNCC3)c(F)cc2c1=O` [CIPROFLOXACIN], the zone of inhibition at 500 ppm in experiment [3] is 17 mm; in experiment [4], 18 mm; in experiment [5], 16 mm; in experiment [6], 16 mm.
Turning to `CN(C)c1ccc(C2C3SC4=NC(c5ccccc5)(c5ccccc5)C(=O)N4C3=NN2CCON2C(=O)c3ccccc3C2=O)cc1` (stereo unspecified), the zone of inhibition at 500 ppm was found to be 17 mm in experiment [1]; 7 mm in experiment [3]; 2 mm in experiment [2]; 10 mm in experiment [4]; 5 mm in experiment [5]; 10 mm in experiment [6].
As to `O=C1c2ccccc2C(=O)N1OCCNc1nc(-c2ccc(Cl)cc2)c2c(n1)N1C(=O)C(c3ccccc3)(c3ccccc3)N=C1S2`, the zone of inhibition at 500 ppm in experiment [1] turned out to be 11 mm; in experiment [3], 5 mm; in experiment [2] it was 6 mm; in experiment [4] it was 13 mm; in experiment [5], 4 mm; in experiment [6] it was 13 mm.
As to `O=C1c2ccccc2C(=O)N1OCCN1N=C2C(SC3=NC(c4ccccc4)(c4ccccc4)C(=O)N32)C1c1ccc(F)cc1` (stereo unspecified), the zone of inhibition at 500 ppm turned out to be 20 mm in experiment [1]; 6 mm in experiment [3]; 5 mm in experiment [2]; 11 mm in experiment [4]; 8 mm in experiment [5]; 12 mm in experiment [6].
As to `O=C1c2ccccc2C(=O)N1OCCN1N=C2C(SC3=NC(c4ccccc4)(c4ccccc4)C(=O)N32)C1c1ccccc1` (stereo unspecified), the zone of inhibition at 500 ppm turned out to be 19 mm in experiment [1]; 9 mm in experiment [3]; 4 mm in experiment [2]; 14 mm in experiment [4]; 3 mm in experiment [5]; 12 mm in experiment [6].
In the case of `COc1ccc(C2C3SC4=NC(c5ccccc5)(c5ccccc5)C(=O)N4C3=NN2CCON2C(=O)c3ccccc3C2=O)cc1` (stereo unspecified), the zone of inhibition at 500 ppm in experiment [1] was 18 mm; in experiment [3], 11 mm; in experiment [2], 3 mm; in experiment [4] it was 17 mm; in experiment [5], 6 mm; in experiment [6], 9 mm.
As for `O=C1c2ccccc2C(=O)N1OCCN1N=C2C(SC3=NC(c4ccccc4)(c4ccccc4)C(=O)N32)C1c1ccc(Cl)cc1` (stereo unspecified), the zone of inhibition at 500 ppm in experiment [1] was found to be 20 mm; in experiment [3], 4 mm; in experiment [2], 6 mm; in experiment [4] it was 9 mm; in experiment [5], 5 mm; in experiment [6] it was 11 mm.
Take `CN(C)c1ccc(-c2nc(NCCON3C(=O)c4ccccc4C3=O)nc3c2SC2=NC(c4ccccc4)(c4ccccc4)C(=O)N23)cc1`: the zone of inhibition at 500 ppm in experiment [1] amounted to 19 mm; in experiment [3] it was 10 mm; in experiment [2] it was 8 mm; in experiment [4], 11 mm; in experiment [5], 7 mm; in experiment [6], 15 mm.
Turning to `O=C1c2ccccc2C(=O)N1OCCNc1nc(-c2ccc(F)cc2)c2c(n1)N1C(=O)C(c3ccccc3)(c3ccccc3)N=C1S2`, the zone of inhibition at 500 ppm was 23 mm in experiment [1]; 13 mm in experiment [3]; 4 mm in experiment [2]; 21 mm in experiment [4]; 8 mm in experiment [5]; 13 mm in experiment [6].
